This is an account of results in patent publication US20040077878A1, “Process for the preparation of tri-nitrogen containing heteroaryl-diamine derivatives useful as pharmaceutical agents and methods of producing pharmaceutical agents” (priority 2002, published 2004).

SMILES strings stand for the structures. pIC50: −log10 of the molar value.

In general, pIC50 refers to the IC50 on a negative log10 scale, so that one unit is a factor of ten.

This assay addresses IMPDH II enzyme (Homo sapiens, UniProt P12268). The experiment in a line: assay against the IMPDH II enzyme. The format is biochemical. The text has this:
The present invention enables an efficient and effective production of 1,2,4-triazole-3,5-diamine and/or 1,3,5-triazine-2,4-diamine derivatives, which are useful as pharmaceutical agents and/or as components of pharmaceutical agents, particularly inhibitors of IMPDH, anti-hypertensive agents, and neurokinin receptor antagonists, from readily-available starting compounds. This process provides a convenient synthesis of the target compound from a substituted isothiocyanate, hydrogencyanamide salt, a substituted hydrazine and/or a substituted amidine in moderate to good yield. […] Additionally, tri-nitrogen containing heteroaryl-diamine derivatives of formula (I), 1,2,4-triazole-3,5-diamines of formula (A) and/or (B) and 1,3,5-triazine-2,4-diamines of formula (C) may be readily coupled to a pharmacological core component to provide pharmaceutically active agents, such as, for examples, the compounds described in WO 00/25780, Dunstan et al., Tetrahedron Lett., Vol. 39, (1998), at pp. 7983-7986, U.S. Pat. No. 6,436,928, U.S. patent application No. 20020038030, U.S. Pat. No. 6,172,077 B1, U.S. Pat. No. 5,232,938, U.S. Pat. No. 4,569,933, WO 01/74806A1, WO 01/56987 A1, and EP 1107962 A1, incorporated herein by reference.

Compound `COc1cc(Nc2nc(N)n(-c3ccccc3)n2)ccc1-c1cnco1` [Example 13] had a negative logarithm of the IC50 (pIC50) of 6.82.
